Measurements taken from article PMC8286840, “Identifying SARS-CoV-2 antiviral compounds by screening for small molecule inhibitors of Nsp3 papain-like protease” (Biochemical Journal, 2021).
Structures can show the parent of a compound that is named as a salt. Where two headings read alike, the source gives them in different places.

Experiments:
[1] = target: T1, SARS-CoV-2 PLpro (nsp3 1564–1878) (Severe acute respiratory syndrome coronavirus 2, UniProt P0DTD1); assay: biochemical; design: FRET-quenched peptide (Pro3) cleavage by PLpro, 10 min pre-incubation, slope over 20 min, normalised to no-compound control; conditions: read-out: % of control remaining
[2] = target: T1, SARS-CoV-2 PLpro (nsp3 1564–1878); assay: biochemical; design: FRET-quenched peptide (Pro3) cleavage by PLpro, 10 min pre-incubation, slope over 20 min, normalised to no-compound control; conditions: read-out: % of control remaining; remark: listed apart in the source

Work on `CC(C)CN(C[C@@H](OP(=O)(O)O)[C@H](Cc1ccccc1)NC(=O)O[C@H]1CCOC1)S(=O)(=O)c1ccc(N)cc1` [Fosamprenavir] yielded a remaining activity at 1.25 µM ([1]; Well no.=7846, low concentration screen) of 104% and a remaining activity at 3.75 µM ([2]; Well no.=7846, high concentration screen) of 102%.
`COc1ccc(C(=O)NCc2cccnc2)cc1C(=O)NCc1cccnc1` [Picotamide] showed a remaining activity at 1.25 µM ([1]; Well no.=1351, low concentration screen) of 102%, a remaining activity at 1.25 µM ([1]; Well no.=2202, low concentration screen) of 88.9% and a remaining activity at 3.75 µM ([2]; Well no.=1351, high concentration screen) of 102%. It also gave a remaining activity at 3.75 µM ([2]; Well no.=2202, high concentration screen) of 90.3%.
`CCC1(c2ccc(N)cc2)CCC(=O)NC1=O` (racemic) was tested, and the remaining activity at 1.25 µM ([1]; Well no.=202, low concentration screen) was 100% and the remaining activity at 3.75 µM ([2]; Well no.=202, high concentration screen) was 102%.
For `O=C(O)[C@H]1O[C@@H](Oc2cc3oc(-c4ccccc4)cc(=O)c3c(O)c2O)[C@H](O)[C@@H](O)[C@@H]1O` [Baicalin], the remaining activity at 1.25 µM ([1]; Well no.=5190, low concentration screen) was 101% and the remaining activity at 3.75 µM ([2]; Well no.=5190, high concentration screen) was 100%.
In the case of `CNC(=O)c1ccccc1Nc1nc(Nc2ccc(N3CCOCC3)cc2OC)ncc1Cl` [NVP-TAE226], the remaining activity at 1.25 µM ([1]; Well no.=4789, low concentration screen) is reported as 103% and the remaining activity at 3.75 µM ([2]; Well no.=4789, high concentration screen) is reported as 105%.
In the case of `c1ccc2c(Oc3nc(Nc4ccc(N5CCOCC5)cc4)c4ncn(C5CCCCC5)c4n3)cccc2c1` [9-cyclohexyl-N-[4-(4-morpholinyl)phenyl]-2-(1-naphthyloxy)-9H-purin-6-amine], the remaining activity at 1.25 µM ([1]; Well no.=5695, low concentration screen) is reported as 98.5% and the remaining activity at 3.75 µM ([2]; Well no.=5695, high concentration screen) is reported as 97.8%.
`C/C(=C\c1csc(C)n1)[C@@H]1C[C@@H]2O[C@]2(C)CCC[C@H](C)[C@H](O)[C@@H](C)C(=O)C(C)(C)[C@@H](O)CC(=O)N1` [Ixabepilone] gave a remaining activity at 1.25 µM ([1]; Well no.=6934, low concentration screen) of 108% and a remaining activity at 3.75 µM ([2]; Well no.=6934, high concentration screen) of 107%.
`CC(C(=O)O)c1cccc(Oc2ccccc2)c1` (centres unmarked) [Fenoprofen] showed a remaining activity at 1.25 µM ([1]; Well no.=2082, low concentration screen) of 98.6% and a remaining activity at 3.75 µM ([2]; Well no.=2082, high concentration screen) of 99.2%.
Work on `CC1(C)CCCC(C)(C)N1[O]` [TEMPO] yielded a remaining activity at 1.25 µM [1] of 95.5% and a remaining activity at 3.75 µM [2] of 99.1%.
`CCCN(CCC)[C@H]1CCc2c(F)ccc(O)c2C1` [S(-)-UH-301 hydrochloride] showed a remaining activity at 1.25 µM ([1]; Well no.=1334, low concentration screen) of 97.2% and a remaining activity at 3.75 µM ([2]; Well no.=1334, high concentration screen) of 95.3%.
Work on `Nc1ncnc2c1ncn2[C@@H]1O[C@@H]2CO[P@@](=O)(O)O[C@H]3[C@@H](O)[C@H](n4cnc5c(N)ncnc54)O[C@@H]3CO[P@@](=O)(O)O[C@H]2[C@H]1O` [c-di-AMP] yielded a remaining activity at 1.25 µM ([1]; Well no.=7914, low concentration screen) of 91.4%, a remaining activity at 1.25 µM ([1]; Well no.=8703, low concentration screen) of 104% and a remaining activity at 3.75 µM ([2]; Well no.=7914, high concentration screen) of 90.2%. It also gave a remaining activity at 3.75 µM ([2]; Well no.=8703, high concentration screen) of 102%.
`NN=C(N)N` [Aminoguanidine hemisulfate] was tested, and the remaining activity at 1.25 µM ([1]; Well no.=213, low concentration screen) was 95.8% and the remaining activity at 3.75 µM ([2]; Well no.=213, high concentration screen) was 96.8%.
For `c1ccc2c(c1)CCCC2C1=NCCN1` (centres unmarked) [Tetrahydrozoline hydrochloride], the remaining activity at 1.25 µM ([1]; Well no.=1239, low concentration screen) was 103% and the remaining activity at 3.75 µM ([2]; Well no.=1239, high concentration screen) was 103%.
For `O=C(COc1ccc(C(=O)c2ccccc2)cc1)NC1CCN(Cc2ccccc2)CC1` [AdipoRon], the remaining activity at 1.25 µM ([1]; Well no.=7239, low concentration screen) was 100% and the remaining activity at 3.75 µM ([2]; Well no.=7239, high concentration screen) was 96.7%.
Work on `Nc1nc(N)nc(-c2cc(Cl)ccc2Cl)n1` [Irsogladine] yielded a remaining activity at 1.25 µM ([1]; Well no.=2148, low concentration screen) of 98.6%, a remaining activity at 1.25 µM ([1]; Well no.=7629, low concentration screen) of 94% and a remaining activity at 3.75 µM ([2]; Well no.=2148, high concentration screen) of 98.3%. For the same compound, the remaining activity at 3.75 µM ([2]; Well no.=7629, high concentration screen) was 88.4%.
With `Cc1noc(-c2ccc(-c3ccc(CC(=O)O)cc3)cc2)c1NC(=O)O[C@H](C)c1ccccc1` [AM095] the remaining activity at 1.25 µM ([1]; Well no.=7815, low concentration screen) was 101% and the remaining activity at 3.75 µM ([2]; Well no.=7815, high concentration screen) was 94%.
`CN1C2CCC1CC(NC(=O)c1nn(C)c3ccccc13)C2` (centres unmarked) [LY-278,584 maleate] showed a remaining activity at 1.25 µM [1] of 98.8% and a remaining activity at 3.75 µM [2] of 101%.
In the case of `O=C(O)c1cccnc1Nc1cccc(C(F)(F)F)c1` [Niflumic acid], the remaining activity at 1.25 µM ([1]; Well no.=995, low concentration screen) is reported as 99.1%, the remaining activity at 1.25 µM ([1]; Well no.=2011, low concentration screen) is reported as 102% and the remaining activity at 3.75 µM ([2]; Well no.=995, high concentration screen) is reported as 103%. For the same compound, the remaining activity at 3.75 µM ([2]; Well no.=2011, high concentration screen) was 106%.
For `CC[C@]12C=CCN3CC[C@@]4(c5cc([C@@]6(C(=O)OC)C[C@@H]7C[C@@H](C(C)(F)F)CN(Cc8c6[nH]c6ccccc86)C7)c(OC)cc5N(C)[C@H]4[C@@](O)(C(=O)OC)[C@@H]1OC(C)=O)[C@@H]32` [Vinflunine Tartrate], the remaining activity at 1.25 µM ([1]; Well no.=4892, low concentration screen) was 95.2% and the remaining activity at 3.75 µM ([2]; Well no.=4892, high concentration screen) was 94.7%.
For `O=c1[nH]c(=O)n(C2CCCO2)cc1F` (centres unmarked) [Ftorafur], the remaining activity at 1.25 µM ([1]; Well no.=2164, low concentration screen) was 97.3% and the remaining activity at 3.75 µM ([2]; Well no.=2164, high concentration screen) was 99.1%.
With `CNC(=O)OCC[N+](C)(C)C` [Methylcarbamylcholine chloride] the remaining activity at 1.25 µM ([1]; Well no.=1135, low concentration screen) was 95.1% and the remaining activity at 3.75 µM ([2]; Well no.=1135, high concentration screen) was 96.5%.
